# The source made the active and inactive calls. The rule behind the calls is not given here.
# How the values were obtained:
# [1] = biological target: Insulin receptor (Homo sapiens) (UniProt P06213); experiment: Inhibition of IRK (unknown origin) at 100 nM by [gamma-33P]ATP-based radiometric or Alphascreen assay relative to control
# [2] = biological target: Focal adhesion kinase 1 (Homo sapiens, UniProt Q05397); experiment: Inhibition of human FAK kinase domain (411 to 686 residues) expressed in baculovirus expression system using biotin-poly-GT as substrate pre-incubated for 10 mins followed by ATP addition and measured after 60 mins by HTRF method
# [3] = biological target: High affinity nerve growth factor receptor (Homo sapiens, UniProt P04629); experiment: Inhibition of TRKA (unknown origin) at 100 nM by [gamma-33P]ATP-based radiometric or Alphascreen assay relative to control
# [4] = Unbound brain-to-plasma concentration ratio in Jcl-ICR mouse at 100 mg/kg, ip measured at 1 hr by LC/MS/MS analysis; assay type: ADME, organism-based; details: read-out: K(p,uu,brain)
# [5] = biological target: MDR1 (ABCB1, P-gp) (Homo sapiens, UniProt P08183); experiment: Substrate activity at human MDR1 expressed in pig LLC-PK1 cells assessed as efflux ratio of apparent permeability across basolateral to apical over apical to basolateral side at 10 uM after 2 hrs by LC/MS/MS analysis; assay type: ADME, cell-based
# [6] = biological target: Casein kinase I isoform delta (Homo sapiens) (UniProt P48730); experiment: Inhibition of CK1delta (unknown origin) at 100 nM by [gamma-33P]ATP-based radiometric or Alphascreen assay relative to control
# Casein kinase I isoform delta (Homo sapiens), sequence (P48730 whole entry, looked up, canonical isoform): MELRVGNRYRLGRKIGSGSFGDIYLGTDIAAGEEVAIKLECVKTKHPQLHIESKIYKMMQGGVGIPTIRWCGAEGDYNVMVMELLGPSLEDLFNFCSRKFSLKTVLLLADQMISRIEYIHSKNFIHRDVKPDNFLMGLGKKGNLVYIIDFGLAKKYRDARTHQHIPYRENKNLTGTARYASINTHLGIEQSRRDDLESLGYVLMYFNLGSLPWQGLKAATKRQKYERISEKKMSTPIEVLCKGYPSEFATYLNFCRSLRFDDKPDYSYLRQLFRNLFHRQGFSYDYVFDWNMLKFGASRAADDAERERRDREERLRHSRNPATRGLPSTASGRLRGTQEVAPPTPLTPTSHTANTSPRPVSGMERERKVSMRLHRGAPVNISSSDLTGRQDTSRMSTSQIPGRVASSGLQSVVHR
# [7] = biological target: Serine/threonine-protein kinase Chk1 (Homo sapiens) (UniProt O14757); experiment: Inhibition of CHEK1 (unknown origin) at 100 nM by [gamma-33P]ATP-based radiometric or Alphascreen assay relative to control
# [8] = biological target: Aurora kinase B (Homo sapiens) (UniProt Q96GD4); experiment: Inhibition of N-terminal His6-tagged AuroraB (unknown origin) expressed in baculovirus expression system at 100 nM using aurora peptide as substrate preincubated for 5 mins followed by [gamma-33P]ATP addition and measured after 60 mins by topcount scintillation counting method relative to control
# Aurora kinase B (Homo sapiens), sequence (Q96GD4 whole entry): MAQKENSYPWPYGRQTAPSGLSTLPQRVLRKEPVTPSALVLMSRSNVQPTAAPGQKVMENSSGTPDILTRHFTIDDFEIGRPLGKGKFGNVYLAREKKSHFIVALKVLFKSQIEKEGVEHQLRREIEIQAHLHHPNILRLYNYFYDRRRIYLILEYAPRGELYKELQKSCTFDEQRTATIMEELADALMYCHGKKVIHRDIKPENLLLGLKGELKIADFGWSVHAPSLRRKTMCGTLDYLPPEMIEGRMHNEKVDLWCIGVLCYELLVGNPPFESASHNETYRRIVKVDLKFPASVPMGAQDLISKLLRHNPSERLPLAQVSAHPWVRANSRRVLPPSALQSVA
# [9] = biological target: T1, ALK tyrosine kinase receptor (Homo sapiens, UniProt Q9UM73); assay type: cell-based, HEK293
# T1 sequence (Q9UM73 whole entry): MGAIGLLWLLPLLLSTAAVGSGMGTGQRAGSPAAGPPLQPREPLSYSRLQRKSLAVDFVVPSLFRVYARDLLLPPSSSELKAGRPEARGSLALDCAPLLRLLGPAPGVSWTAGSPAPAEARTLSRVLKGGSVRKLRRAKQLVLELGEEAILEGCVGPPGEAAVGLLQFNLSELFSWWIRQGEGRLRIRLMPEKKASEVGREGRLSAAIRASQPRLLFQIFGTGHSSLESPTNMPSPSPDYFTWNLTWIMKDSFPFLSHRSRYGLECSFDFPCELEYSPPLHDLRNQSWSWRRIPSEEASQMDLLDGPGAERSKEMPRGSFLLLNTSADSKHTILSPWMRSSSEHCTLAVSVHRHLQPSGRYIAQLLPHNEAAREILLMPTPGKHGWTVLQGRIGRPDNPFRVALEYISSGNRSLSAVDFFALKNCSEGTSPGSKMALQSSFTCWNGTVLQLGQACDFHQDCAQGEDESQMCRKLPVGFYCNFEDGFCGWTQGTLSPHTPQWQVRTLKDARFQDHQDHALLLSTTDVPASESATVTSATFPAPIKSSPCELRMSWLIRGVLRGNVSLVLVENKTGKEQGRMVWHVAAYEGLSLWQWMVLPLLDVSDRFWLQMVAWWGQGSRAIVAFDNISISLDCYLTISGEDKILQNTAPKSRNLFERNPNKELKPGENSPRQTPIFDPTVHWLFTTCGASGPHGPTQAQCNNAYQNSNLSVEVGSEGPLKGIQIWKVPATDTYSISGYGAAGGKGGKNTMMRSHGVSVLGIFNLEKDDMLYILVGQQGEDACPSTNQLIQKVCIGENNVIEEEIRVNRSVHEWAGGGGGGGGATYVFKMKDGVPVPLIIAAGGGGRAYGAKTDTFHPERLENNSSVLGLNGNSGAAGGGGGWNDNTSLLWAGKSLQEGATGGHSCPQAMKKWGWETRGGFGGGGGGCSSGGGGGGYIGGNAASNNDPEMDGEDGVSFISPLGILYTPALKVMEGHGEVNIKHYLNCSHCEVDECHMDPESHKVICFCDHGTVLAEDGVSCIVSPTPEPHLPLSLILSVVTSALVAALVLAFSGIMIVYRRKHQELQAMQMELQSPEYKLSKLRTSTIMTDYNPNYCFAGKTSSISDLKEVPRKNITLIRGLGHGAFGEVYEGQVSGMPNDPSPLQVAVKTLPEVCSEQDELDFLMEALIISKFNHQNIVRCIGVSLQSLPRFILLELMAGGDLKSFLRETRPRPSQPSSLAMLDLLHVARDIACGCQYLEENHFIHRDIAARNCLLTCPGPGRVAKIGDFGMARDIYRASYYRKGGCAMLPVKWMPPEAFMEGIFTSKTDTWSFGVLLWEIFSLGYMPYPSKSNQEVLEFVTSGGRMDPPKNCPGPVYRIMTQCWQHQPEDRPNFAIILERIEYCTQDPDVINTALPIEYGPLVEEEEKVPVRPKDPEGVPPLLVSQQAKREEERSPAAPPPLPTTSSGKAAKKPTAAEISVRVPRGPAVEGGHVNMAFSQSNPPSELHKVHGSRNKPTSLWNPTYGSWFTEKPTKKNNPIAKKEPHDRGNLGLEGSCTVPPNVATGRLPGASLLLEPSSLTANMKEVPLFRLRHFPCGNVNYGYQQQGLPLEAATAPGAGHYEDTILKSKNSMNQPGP
# Description: Inhibition of recombinant human ALK expressed in HEK293 cells assessed as reduction in ALK autophosphorylation at Tyr1604 residue incubated for 60 mins by sandwich ELISA
# [10] = biological target: Proto-oncogene tyrosine-protein kinase Src (Homo sapiens) (UniProt P12931); experiment: Inhibition of recombinant human full-length N-terminal His6-tagged SRC expressed in Sf21 insect cells at 100 nM preincubated for 5 mins followed by ATP addition and measured after 10 mins by alphascreen assay relative to control
# Proto-oncogene tyrosine-protein kinase Src (Homo sapiens), sequence (P12931 2-536 limits assumed): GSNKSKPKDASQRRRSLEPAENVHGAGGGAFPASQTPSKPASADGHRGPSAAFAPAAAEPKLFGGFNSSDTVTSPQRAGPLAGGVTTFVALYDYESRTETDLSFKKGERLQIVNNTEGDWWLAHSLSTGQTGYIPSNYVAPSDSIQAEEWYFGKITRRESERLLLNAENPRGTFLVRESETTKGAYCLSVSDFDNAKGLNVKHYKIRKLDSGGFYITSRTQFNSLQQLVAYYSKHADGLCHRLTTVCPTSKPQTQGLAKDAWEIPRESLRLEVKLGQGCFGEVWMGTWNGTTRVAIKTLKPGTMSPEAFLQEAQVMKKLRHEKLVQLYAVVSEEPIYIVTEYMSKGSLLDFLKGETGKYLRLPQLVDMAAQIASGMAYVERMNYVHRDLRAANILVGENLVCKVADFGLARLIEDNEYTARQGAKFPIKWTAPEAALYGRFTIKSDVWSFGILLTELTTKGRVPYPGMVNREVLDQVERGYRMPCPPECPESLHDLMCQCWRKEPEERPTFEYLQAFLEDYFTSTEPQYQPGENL
# [11] = Drug level in Jcl-ICR mouse plasma at 100 mg/kg, ip measured at 0.5 hrs by LC/MS/MS analysis; assay type: ADME, organism-based
# [12] = Unbound brain-to-plasma concentration ratio in Jcl-ICR mouse at 100 mg/kg, ip measured at 2 hrs by LC/MS/MS analysis; assay type: ADME, organism-based; details: read-out: K(p,uu,brain)
# [13] = Drug level in Jcl-ICR mouse brain at 100 mg/kg, ip measured at 2 hr by LC/MS/MS analysis; assay type: ADME, organism-based; details: read-out: Drug uptake
# [14] = biological target: Cell division cycle 7-related protein kinase (Homo sapiens) (UniProt O00311); experiment: Inhibition of CDC7 (unknown origin) at 100 nM by [gamma-33P]ATP-based radiometric or Alphascreen assay relative to control
# [15] = biological target: Protein kinase C theta type (Homo sapiens) (UniProt Q04759); experiment: Inhibition of N-terminal FLAG-tagged PKCtheta (unknown origin) expressed in baculovirus expression system at 100 nM using pGS peptide as substrate preincubated for 5 mins followed by [gamma-33P]ATP addition and measured after 30 mins by topcount scintillation counting method relative to control
# [16] = biological target: Epidermal growth factor receptor (Homo sapiens) (UniProt P00533); experiment: Inhibition of human N-terminal DYKDDDD-tagged EGFR cytoplasmic domain (669 to 1210 residues) expressed in baculovirus expression system at 100 nM using poly-Glu-Tyr(4:1) as substrate preincubated for 5 mins followed by [gamma-33P]ATP addition and measured after 10 mins by topcount scintillation counting method relative to control
# [17] = tested on: Mus musculus; experiment: In-vivo inhibition of ALK in ip dosed ICR mouse hippocampus assessed as reduction in phosphorylated ALK level after 1 hr by Western blot analysis; assay type: functional, organism-based
# [18] = biological target: Cyclin-dependent kinase 2 (Homo sapiens) (UniProt P24941); experiment: Inhibition of CDK2 (unknown origin) at 100 nM by [gamma-33P]ATP-based radiometric or Alphascreen assay relative to control
# [19] = Brain to plasma partition coefficient, Kp of the compound in Jcl-ICR mouse at 100 mg/kg, ip measured at 1 hr by LC/MS/MS analysis; assay type: ADME, organism-based
# [20] = biological target: Glycogen synthase kinase-3 beta (Homo sapiens) (UniProt P49841); experiment: Inhibition of N-terminal FLAG-tagged GSK3beta (unknown origin) expressed in baculovirus expression system at 100 nM using pGS peptide as substrate preincubated for 5 mins followed by [gamma-33P]ATP addition and measured after 30 mins by topcount scintillation counting method relative to control
# Glycogen synthase kinase-3 beta (Homo sapiens), sequence (P49841 whole entry, looked up): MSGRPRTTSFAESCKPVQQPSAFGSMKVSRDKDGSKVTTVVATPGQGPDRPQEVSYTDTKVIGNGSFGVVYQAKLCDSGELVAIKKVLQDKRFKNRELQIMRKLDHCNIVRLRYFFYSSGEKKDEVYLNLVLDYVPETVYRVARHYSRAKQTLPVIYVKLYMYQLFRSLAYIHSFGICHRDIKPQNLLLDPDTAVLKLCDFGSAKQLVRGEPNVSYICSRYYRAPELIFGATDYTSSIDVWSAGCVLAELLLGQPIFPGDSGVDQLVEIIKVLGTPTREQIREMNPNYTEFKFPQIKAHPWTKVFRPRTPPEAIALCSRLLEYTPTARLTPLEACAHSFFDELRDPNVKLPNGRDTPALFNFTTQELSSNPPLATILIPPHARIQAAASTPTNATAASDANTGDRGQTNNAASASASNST
# [21] = biological target: Vascular endothelial growth factor receptor 2 (Homo sapiens) (UniProt P35968); experiment: Inhibition of N-terminal FLAG-tagged VEGFR2 (unknown origin) expressed in baculovirus expression system at 100 nM preincubated for 5 mins followed by ATP addition and measured after 10 mins by alphascreen assay relative to control
# [22] = biological target: T1, ALK tyrosine kinase receptor
# Description: Inhibition of human ALK kinase domain (1058 to 1620 residues) expressed in baculovirus expression system using biotin-poly-GT as substrate pre-incubated for 10 mins followed by ATP addition and measured after 60 mins by HTRF method
# [23] = biological target: Serine/threonine-protein kinase PLK1 (Homo sapiens) (UniProt P53350); experiment: (§1) Inhibition of N-terminal FLAG-tagged PLK1 (unknown origin) expressed in baculovirus expression system at 100 nM using alpha-casein as substrate preincubated for 5 mins followed by [gamma-33P]ATP addition and measured after 40 mins by topcount scintillation counting method relative to control
# [24] = biological target: Tyrosine-protein kinase JAK1 (Homo sapiens) (UniProt P23458); experiment: Inhibition of JAK1 (unknown origin) at 100 nM by [gamma-33P]ATP-based radiometric or Alphascreen assay relative to control
# [25] = Fraction unbound in ICR mouse brain at 1 umol/L measured for 16 to 20 hrs by equilibrium dialysis based LC-MS/MS analysis; assay type: ADME, tissue-based; details: 1 µM
# [26] = tested on: Mus musculus; experiment: In-vivo inhibition of ALK in ICR mouse prefrontal cortex assessed as reduction in phosphorylated ALK level at 100 mg/kg, ip after 1 hr by Western blot analysis; assay type: functional, organism-based
# [27] = Unbound brain-to-plasma concentration ratio in Jcl-ICR mouse at 100 mg/kg, ip measured at 0.5 hrs by LC/MS/MS analysis; assay type: ADME, organism-based; details: read-out: K(p,uu,brain)
# [28] = biological target: Mitogen-activated protein kinase 14 (Homo sapiens) (UniProt Q16539); experiment: as §1, with “p38alpha” for “PLK1”, “myelin basic protein” for “alpha-casein”, “60” for “40”
# Mitogen-activated protein kinase 14 (Homo sapiens), sequence (Q16539 whole entry): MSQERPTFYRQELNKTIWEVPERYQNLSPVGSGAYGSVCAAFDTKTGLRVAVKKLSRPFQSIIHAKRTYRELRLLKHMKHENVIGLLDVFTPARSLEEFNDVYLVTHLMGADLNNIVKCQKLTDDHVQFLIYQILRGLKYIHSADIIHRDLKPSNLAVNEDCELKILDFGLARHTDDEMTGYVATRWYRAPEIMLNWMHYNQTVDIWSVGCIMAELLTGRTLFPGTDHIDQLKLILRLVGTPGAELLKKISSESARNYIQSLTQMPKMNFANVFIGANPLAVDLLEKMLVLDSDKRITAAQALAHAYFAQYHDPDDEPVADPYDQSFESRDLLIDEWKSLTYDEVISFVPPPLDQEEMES
# [29] = biological target: Mitogen-activated protein kinase kinase kinase 5 (Homo sapiens) (UniProt Q99683); experiment: Inhibition of N-terminal FLAG-tagged ASK1 (unknown origin) expressed in baculovirus expression system at 100 nM using myelin basic protein as substrate preincubated for 5 mins followed by [gamma-33P]ATP addition and measured after 60 mins by topcount scintillation counting method relative to control
# Insulin receptor (Homo sapiens), sequence (P06213 28-758 limits assumed): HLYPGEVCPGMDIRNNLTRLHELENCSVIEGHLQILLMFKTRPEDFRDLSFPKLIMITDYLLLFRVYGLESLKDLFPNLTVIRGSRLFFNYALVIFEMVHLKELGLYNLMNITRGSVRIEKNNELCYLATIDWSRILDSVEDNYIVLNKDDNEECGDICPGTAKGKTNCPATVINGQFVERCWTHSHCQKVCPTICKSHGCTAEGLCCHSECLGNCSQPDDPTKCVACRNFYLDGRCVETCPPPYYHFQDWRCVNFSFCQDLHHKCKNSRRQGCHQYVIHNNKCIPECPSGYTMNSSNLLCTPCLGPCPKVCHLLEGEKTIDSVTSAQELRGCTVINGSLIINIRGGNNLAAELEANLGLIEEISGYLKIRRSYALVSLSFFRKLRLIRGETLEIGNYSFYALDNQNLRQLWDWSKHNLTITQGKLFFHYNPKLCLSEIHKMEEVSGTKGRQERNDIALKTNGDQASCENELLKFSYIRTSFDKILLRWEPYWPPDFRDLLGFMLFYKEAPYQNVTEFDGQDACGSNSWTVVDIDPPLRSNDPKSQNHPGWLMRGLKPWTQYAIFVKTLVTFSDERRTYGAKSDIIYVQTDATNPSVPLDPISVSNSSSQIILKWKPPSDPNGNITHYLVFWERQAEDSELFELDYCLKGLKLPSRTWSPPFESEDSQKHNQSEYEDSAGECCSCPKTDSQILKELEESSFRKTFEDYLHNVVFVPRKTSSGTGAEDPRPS
# Insulin receptor (Homo sapiens), sequence (P06213 763-1382 limits assumed): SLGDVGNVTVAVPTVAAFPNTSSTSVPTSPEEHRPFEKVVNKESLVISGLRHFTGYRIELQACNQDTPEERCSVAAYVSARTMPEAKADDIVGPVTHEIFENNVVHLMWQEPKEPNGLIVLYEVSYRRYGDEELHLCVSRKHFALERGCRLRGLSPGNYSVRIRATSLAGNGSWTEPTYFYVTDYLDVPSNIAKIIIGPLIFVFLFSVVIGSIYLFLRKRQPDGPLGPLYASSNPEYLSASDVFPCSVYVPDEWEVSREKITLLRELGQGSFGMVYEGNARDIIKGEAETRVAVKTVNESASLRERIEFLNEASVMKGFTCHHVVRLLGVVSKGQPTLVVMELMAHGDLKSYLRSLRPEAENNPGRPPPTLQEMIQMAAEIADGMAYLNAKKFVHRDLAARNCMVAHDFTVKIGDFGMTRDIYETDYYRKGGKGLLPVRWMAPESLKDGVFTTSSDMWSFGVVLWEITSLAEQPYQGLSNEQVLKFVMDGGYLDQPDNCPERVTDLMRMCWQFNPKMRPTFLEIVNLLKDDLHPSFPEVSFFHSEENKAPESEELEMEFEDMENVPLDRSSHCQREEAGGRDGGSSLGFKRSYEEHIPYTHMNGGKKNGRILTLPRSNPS
smiles,measurement,setting,value
Cc1cc(-n2cc(C(=O)N3CCO[C@@H](C)C3)c3ccc(O[C@@H](C)c4ccc(F)cn4)nc32)n[nH]1,inhibition,[1],2%
same,IC50,[2],25 nM
same,inhibition,[3],9%
same,Kp uu at 1 h,[4],0.27
same,"efflux ratio at 2 h, 10 µM",[5],1
same,inhibition,[6],6%
same,inhibition,[7],-9%
same,inhibition,[8],21%
same,IC50,[9],27 nM
same,inhibition,[10],-2%
same,concentration at 0.5 h,[11],26200 ng/mL
same,Kp uu at 2 h,[12],0.11
same,concentration at 2 h,[13],10300 ng/mL
same,inhibition,[14],-2%
same,inhibition,[15],2%
same,inhibition,[16],-1%
same,inhibition,[17],Dose-dependent effect
same,inhibition,[18],5%
same,Kp at 1 h,[19],1.28
same,inhibition,[20],3%
same,inhibition,[21],2%
same,IC50,[22],2.9 nM
same,inhibition,[23],5%
same,inhibition,[24],-8%
same,Fu,[25],0.017%
same,inhibition,[26],Active
same,Kp uu at 0.5 h,[27],0.27
same,inhibition,[28],-4%
same,inhibition,[29],-1%
